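A five-concentration, 48-hour dose response in 96-well plates underlies each endpoint, interpolated linearly between surrounding concentrations. GI50: concentration for 50% inhibition of growth.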 The source made the active and inactive calls. Rule as the data show it: active = GI50 up to about 1.1 µM and inactive = higher.
Legend:
Assay in all cases: NCI tumour cell line growth inhibition, 48 h
786-0 = system: 786-0
HCT-116 = system: HCT-116
HCT-15 = system: HCT-15
HL-60 = system: HL-60
HT-29 = system: HT-29
Hs-578T = system: Hs-578T
KM12 = system: KM12
OVCAR-4 = system: OVCAR-4
SF-268 = system: SF-268
SF-295 = system: SF-295
SF-539 = system: SF-539
SK-MEL-28 = system: SK-MEL-28
SK-MEL-2 = system: SK-MEL-2
SK-MEL-5 = system: SK-MEL-5
SR = system: SR
UACC-62 = system: UACC-62
UO-31 = system: UO-31
MDA-N = system: MDA-N
SN12C = system: SN12C
NCI-H522 = system: NCI-H522

| SMILES | GI50 (786-0) | GI50 (HCT-116) | GI50 (HCT-15) [µM] | GI50 (HL-60) | GI50 (HT-29) | GI50 (Hs-578T) | GI50 (KM12) | GI50 (OVCAR-4) | GI50 (SF-268) | GI50 (SF-295) | GI50 (SF-539) | GI50 (SK-MEL-28) | GI50 (SK-MEL-2) | GI50 (SK-MEL-5) | GI50 (SR) | GI50 (UACC-62) | GI50 (UO-31) | GI50 (MDA-N) | GI50 (SN12C) | GI50 (NCI-H522) |
| --- | --- | --- | --- | --- | --- | --- | --- | --- | --- | --- | --- | --- | --- | --- | --- | --- | --- | --- | --- | --- |
| CCOC(=O)C(C)c1nc2cc3cccnc3c(Cl)c2[nH]c1=O (centres undefined) | > 100 µM (inactive) | > 100 µM (inactive) | > 100 | > 100 µM (inactive) | > 100 µM (inactive) | 54.1 µM (inactive) | > 100 µM (inactive) | > 100 µM (inactive) | 86.1 µM (inactive) | > 100 µM (inactive) | > 100 µM (inactive) | > 100 µM (inactive) | 86.9 µM (inactive) | > 100 µM (inactive) | 73.6 µM (inactive) | > 100 µM (inactive) | > 100 µM (inactive) |  |  |  |
| CC(=O)c1c[nH]cc1CO | > 10 µM (inactive) | > 10 µM (inactive) | > 10 | > 10 µM (inactive) |  |  | > 10 µM (inactive) |  | > 10 µM (inactive) | > 10 µM (inactive) | > 10 µM (inactive) | > 10 µM (inactive) | > 10 µM (inactive) | > 10 µM (inactive) | > 10 µM (inactive) |  | > 10 µM (inactive) | > 10 µM (inactive) | > 10 µM (inactive) |  |
| O=C1Nc2ccccc2/C1=N/Nc1nc(-c2ccc([N+](=O)[O-])cc2)cs1 | 19.4 µM (inactive) | 29.6 µM (inactive) | 14.5 |  | 22.9 µM (inactive) |  | 28.5 µM (inactive) | 18.1 µM (inactive) |  | 24.1 µM (inactive) | 17.1 µM (inactive) | 29.7 µM (inactive) | 26.9 µM (inactive) | 31.7 µM (inactive) |  |  | 11.4 µM (inactive) | 27 µM (inactive) | 27 µM (inactive) |  |
| Cc1ccc(S(=NS(=O)(=O)c2ccc(C)cc2)c2ccc(C)cc2)cc1 | > 100 µM (inactive) | 56.9 µM (inactive) | 57 | 34.7 µM (inactive) | > 100 µM (inactive) |  | 48.5 µM (inactive) |  | 76.2 µM (inactive) | 75.7 µM (inactive) | > 100 µM (inactive) | > 100 µM (inactive) |  |  | 36.9 µM (inactive) |  | 63.7 µM (inactive) | 77.1 µM (inactive) | > 100 µM (inactive) |  |
| S=c1[nH]n2c(CCCCCCCCc3nnc4sc(=S)[nH]n34)nnc2s1 | > 100 µM (inactive) | > 100 µM (inactive) | > 100 | > 100 µM (inactive) | > 100 µM (inactive) |  | > 100 µM (inactive) | > 100 µM (inactive) | > 100 µM (inactive) | > 100 µM (inactive) | > 100 µM (inactive) | > 100 µM (inactive) | > 100 µM (inactive) |  | > 100 µM (inactive) | > 100 µM (inactive) | > 100 µM (inactive) | > 100 µM (inactive) | > 100 µM (inactive) | > 100 µM (inactive) |
| COC(=O)C1=C(CCCCO[Si](C)(C)C(C)(C)C)NC(=O)N2[C@@H](CCOCc3ccccc3)CC[C@H]12 | 15.9 µM (inactive) | 10.9 µM (inactive) | 17.8 |  | 12.3 µM (inactive) |  | 18.3 µM (inactive) | 27.5 µM (inactive) | 25.8 µM (inactive) | 26 µM (inactive) |  | 30.5 µM (inactive) | 16.2 µM (inactive) | 10.3 µM (inactive) |  | 24.3 µM (inactive) | 19.5 µM (inactive) | 17.6 µM (inactive) | 16.7 µM (inactive) | 11.1 µM (inactive) |
| CC(C)(C)OC(=O)NCCCCC(N)C(N)=O (centres undefined) | > 100 µM (inactive) | > 100 µM (inactive) | > 100 |  | > 100 µM (inactive) | 45.7 µM (inactive) | > 100 µM (inactive) | > 100 µM (inactive) | > 100 µM (inactive) | > 100 µM (inactive) | > 100 µM (inactive) | > 100 µM (inactive) | > 100 µM (inactive) | 78.7 µM (inactive) |  | 7.46 µM (inactive) | > 100 µM (inactive) | > 100 µM (inactive) | > 100 µM (inactive) | > 100 µM (inactive) |
| O=C(CSCC(=O)N/N=C/c1ccc(F)cc1)N/N=C/c1ccc(F)cc1 | > 100 µM (inactive) | > 100 µM (inactive) | > 100 | > 100 µM (inactive) | > 100 µM (inactive) | > 100 µM (inactive) | > 100 µM (inactive) | > 100 µM (inactive) | > 100 µM (inactive) |  | > 100 µM (inactive) | > 100 µM (inactive) | > 100 µM (inactive) | > 100 µM (inactive) | > 100 µM (inactive) | > 100 µM (inactive) | 48.6 µM (inactive) |  | > 100 µM (inactive) | 65.9 µM (inactive) |
| CC(C)CC(O)P(=O)(O)O.NC1CCCCC1 (centres undefined) | > 100 µM (inactive) | > 100 µM (inactive) |  | > 100 µM (inactive) | > 100 µM (inactive) |  | > 100 µM (inactive) | > 100 µM (inactive) |  | > 100 µM (inactive) |  | > 100 µM (inactive) | > 100 µM (inactive) | > 100 µM (inactive) |  | > 100 µM (inactive) | > 100 µM (inactive) | > 100 µM (inactive) | > 100 µM (inactive) |  |

Reference: ChEMBL document CHEMBL1201862, “PubChem BioAssay data set” (2004)
